Measurements as given in ChEMBL document CHEMBL3507680, “University of Dundee, Gates Library screen for HepG2 cell viability”.

Assay: Human HepG2 cell viability assay in 384 well format
Assay type: toxicity, cell-based
Design: dose 125 nL, time 70.5 hour; concentration not given beside the values
Conditions: HepG2 cells, read-out: Inhibition

| Structure (SMILES) | cytotoxicity at 70.5 h |
| --- | --- |
| Cc1cnn(C2CCCN(C(=O)c3cc(C)sc3C)C2)c1 (configuration not stated) | -2.62% |
| CO[C@H]1CN(Cc2ccc(F)cc2)CC[C@@]12CCCO2 | 6.89% |
| O=C(C1CC=CC1)N1CCC2(CC1)CN(Cc1ccccn1)CCO2 | -4.02% |
| Cc1cc(C)cc(CNC(c2ccccc2)c2nccn2C)c1 (configuration not stated) | 1.26% |
| Cn1cccc1C(=O)N1CCN(Cc2ccncc2)c2ncccc2C1 | -7.79% |
| O=C(c1ccc(Cl)cc1)N1CCC(N2CCNC2=O)CC1 | -3.41% |
| Cc1nncn1CCNC(=O)C1SCCc2sccc21 (configuration not stated) | -3.34% |
| COc1cc(C(F)(F)F)sc1C(=O)O | -6.37% |
| CCOC(=O)C1CCN(Cc2c(O)ccc3oc4c(c23)CCCC4)CC1 | 11.2% |
| CCOc1ccc(C(F)(F)F)cc1NC(=O)N1CCNC(=O)C1 | -1.6% |
| O=C(c1ccn(-c2ccc(F)cc2)n1)N1CCCC(n2ccnc2)C1 (configuration not stated) | -6.02% |
| O=C(Cc1cccs1)NCC1(O)CCSCC1 | -3.88% |
| CCc1ncc2c(n1)CN(Cc1nnc(Cc3ccccc3)o1)CC2 | -1.62% |
| CCN(CC(C)C#N)C(=O)CNc1ccc(F)c(C)c1 (configuration not stated) | 0.826% |
| COc1ccc(C2CC(=O)Nc3c2cnn3C)cc1 (configuration not stated) | 4.68% |
| CC(=O)C1(c2ccccc2)CCN(C(=O)C2CNCCO2)CC1 (configuration not stated) | -7.25% |
| CCCN1C[C@H]2CC[C@@H]1CN(C(=O)Cc1c(C)nc(CC)[nH]c1=O)C2 | -8.7% |
| O=C(NCCCn1nc2ccccn2c1=O)NC1CCC(O)CC1 (configuration not stated) | 9.94% |
| Cc1cc2nc(C(C)C)cc(N(C)CC3CCCN(CCO)C3)n2n1 (configuration not stated) | -2.47% |
| O=c1cc(N2CCNCC2)cnn1CCCn1cccn1 | -9.24% |
| OC1CCN(c2cnnc3ccccc23)CC1 | 30.5% |

| Structure (SMILES) | cytotoxicity at 70.5 h |
| --- | --- |
| Cc1nc(CNc2nc(-c3ccco3)nc3c2CCNCC3)n[nH]1 | -5.4% |
| COc1ccc(CNc2cc3[nH]c(O)nc3cc2C)cc1 | -5.05% |
| CN(CC(N)=O)CC(=O)N1CC=C(c2ccccc2)CC1 | -10.6% |
| CCSCc1csc(-c2ccc(S(C)(=O)=O)cc2)n1 | -2.67% |
| Cc1noc(C(C)C)c1C(=O)NCCC(=O)N1CCCCC1 | -19% |
| Cc1nnc(NCc2ccccc2F)c(C#N)c1C | -5.23% |
| CSc1nccn1-c1cccc(C(=O)NCCN2CCS(=O)(=O)CC2)c1 | 0.708% |
| Cc1ccc(CN2C[C@@H]3CN(c4ncccn4)C[C@@H]3C2)cc1 | -4.24% |
| COc1ccc(NC(=O)c2nc3ccccc3n(C)c2=O)cc1OC | 29.1% |
| Cc1ccc2nc(-c3nc4c([nH]3)CCCNC4=O)cn2c1 | -10.1% |
| CC(C)CNC(=O)C[S+]([O-])Cc1csc(C2CCCCC2)n1 (configuration not stated) | -13% |
| CC(C)N1CCC2(CC1)C(=O)N(CCN(C)C)c1ccccc12 | -6.47% |
| COc1cc(C(=O)N2CCCS2(=O)=O)ccc1OC(C)C | 21.8% |
| CNC(=O)CS(=O)(=O)Cc1coc(-c2cccc(F)c2)n1 | -8.64% |
| CN(C)S(=O)(=O)c1cccc(CNc2cc(CO)ccc2Cl)c1 | -13.5% |
| CC(C)(CO)CCCNC(=O)NC1(c2ccccc2F)CC1 | 3.5% |
| O=C(c1sccc1C1CC1)N1CCN(c2nccs2)CC1 | 6.38% |
| COCCOCC(=O)N1C[C@@H]2CC[C@H](Oc3ccccc3Cl)[C@@H]2C1 | 0.895% |
| Cc1ccc(N2CCCN(C(=O)c3cn(C)c4ccccc34)CC2)nn1 | -7.87% |
| CCS(=O)(=O)N1CCC2(CC(=O)N(c3ccccc3C)C2)C1 (configuration not stated) | 21.9% |
| O=C(c1cc2cc(I)ccc2[nH]1)N1CCC(Nc2cccnn2)CC1 | 1.42% |

| Structure (SMILES) | cytotoxicity at 70.5 h |
| --- | --- |
| Cc1ccc(N2CCO[C@H]3CN(Cc4cccnc4)C[C@H]32)nn1 | 12.6% |
| CC(C)NC(=O)[C@H]1C[C@@H]2[C@@H](C1)OCCN2Cc1cccnc1 | -2.77% |
| Cc1ccc2c(c1)CN(C(=O)c1ccccc1F)C(CN(C)C)CO2 (configuration not stated) | -24.7% |
| CNc1ncc(C(=O)N2CCCC(Cc3ccccc3OC)C2)s1 (configuration not stated) | 20.4% |
| CCc1noc(CN(Cc2cccs2)CC2CCCO2)n1 (configuration not stated) | -1.65% |
| CS(=O)(=O)c1ccc(CN2CCCC3(C2)C(=O)Nc2ccccc23)cc1 (configuration not stated) | 24.9% |
| CCN(C)CC1CCN(C(=O)NCCC2Cc3ccccc3C2)C1 (configuration not stated) | -6.72% |
| COCCC1(CNC(=O)NCC2CN(C)CCN2C)CCC1 (configuration not stated) | -2.66% |
| CC(C)(C)C(=O)NCC(=O)NC1CC(c2cccc(Cl)c2)C1 (configuration not stated) | -1.37% |
| Cc1cc(C)c(CNC(=O)NCc2nnc3n2CCCC3)c(=O)[nH]1 | -13.4% |
| Cc1ccc(C)c(-c2csc(N)c2C#N)c1 | -3.45% |
| O=C(NCC1CC1)C1CN(C(=O)c2cccc(Cl)c2)CC12CCOCC2 (configuration not stated) | 38.6% |
| CCN1CCCC1CN(CCN(C)C)S(=O)(=O)c1ccccc1C#N (configuration not stated) | 29.4% |
| CCN1CC2(CCOCC2)c2cc(NS(=O)(=O)CC)ccc21 | -2.27% |
| COc1cccc(OC)c1-c1ccnc2cc(CC(=O)NC(C)C)nn12 | -7.86% |
| CCn1nc(C)c(C(=O)NCc2csc(C3CC3)n2)c1C | 1.51% |
| Cc1nccc([C@H]2C[C@@H]3CCN(S(C)(=O)=O)C[C@H]3O2)n1 | -0.795% |
| COc1cccc(CC2CN(C3CC(C)(C)NC(C)(C)C3)CCO2)c1 (configuration not stated) | 50.4% |
| CC(C)c1ncncc1C(=O)NCCN1CCCC1 | 5.71% |
| N#Cc1ccc(CN2CCCCC2Cn2cncn2)c(F)c1 (configuration not stated) | 4.33% |
| Cc1ccc(OCCN(C)S(=O)(=O)N2CCOCC2)cc1 | -0.648% |

| Structure (SMILES) | cytotoxicity at 70.5 h |
| --- | --- |
| CCn1cc(CN2CCCN(C(=O)CCc3ccncc3)CC2)cn1 | 25.1% |
| C=C(C)CN(CC)C(=O)c1cc(C)ccc1NS(C)(=O)=O | 3.16% |
| COc1cccc(CN2CCN(C(=O)Nc3nc(C)ns3)CC2=O)c1 | -0.713% |
| CC1N(c2cnn(C)c2)C(=O)COC12CCN(c1ccccn1)CC2 (configuration not stated) | -2.76% |
| Cc1ccc(-c2cc(N)c(=O)n(C(C)C(=O)NC(C)C)n2)o1 (configuration not stated) | -11.9% |
| Cc1nc(C)n(CC2CN(Cc3cccnc3)CCO2)n1 (configuration not stated) | -3.76% |
| CCc1noc(C(C)N2CCN(CC(=O)N3CCOCC3)CC2)n1 (configuration not stated) | -4.7% |
| COc1cccc(CC(=O)N2CCc3ncnc(NC(C)C)c3CC2)c1 | -14% |
| CN(C(=O)Cn1nnnc1C(C)(C)C)c1ccccc1 | -19.5% |
| Cc1nc(C)n(CCCn2ccnc2-c2cc3n(n2)CCCNC3)n1 | -11% |
| OCCN1CCC(CNCc2ccccc2OC(F)(F)F)CC1 | -7.57% |
| COCc1nc(C(=O)NS(=O)(=O)c2cc(C)ccc2C)cs1 | 3.09% |
| c1ccc(-c2nc3c(c(NCc4nnc5n4CCC5)n2)CCNC3)cc1 | -7.92% |
| CC(C)n1cnnc1CN(C)C(=O)Cn1ccc2ccccc2c1=O | -8.95% |
| CN1CCC(CN(C)S(=O)(=O)CC2CCCCC2)CC1 | 11.1% |
| COCc1nc2cc(NCc3ccc(C)o3)ccc2o1 | 0.17% |
| CN1CCN(C(=O)c2cc(-c3ccco3)cs2)CC1 | -20.5% |
| CC(C)CNC[C@H]1COCc2nc3cccnc3n21 | 10% |
| Cc1ccc(S(=O)(=O)Nc2c(C)nc(N3CCCC3)nc2C)cc1 | -2.23% |
